Results on ten molecules are retold here after ChEMBL document CHEMBL1201862, “PubChem BioAssay data set” (2004).

The source made the active and inactive calls. Bounds are passed on as bounds.

Test [1] can be described thus: OVCAR4 cell viability loss – plate reader, dry powder, SA11, cytotoxicity control for PAX8 inhibitor project, dose response (AID 743150). The class given is functional, cell-based. The conditions noted are these: OVCAR-4.
Test [2] can be described thus: OVCAR8 cell viability loss – plate reader, dry powder samples, PAX8 project, dose response (AID 743197). The class given is functional, cell-based. The conditions noted are these: OVCAR-8.
Test [3] is described as follows: A2780 cell killing – plate reader, dry powder samples, cytotoxicity control, dose response (AID 743046). Format: functional, cell-based.
Test [4] can be described thus: reduced cellular PGC1a acetyl-lysine signal – cell-based, cherry-picked samples, dose response (AID 720514).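 Further: potency may reflect raised or lowered acetylation signal.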 The class given is functional.
Test [5] is described as follows: COV362 cell viability loss – plate reader, dry powder, SA12, cytotoxicity control for PAX8 inhibitor project, dose response (AID 743144). The class given is functional, cell-based.
A short description of test [6]: toxicity toward immortalized ovarian surface epithelium – cell-based, plate reader, dry powder samples, cytotoxicity control for PAX8 inhibitor project, dose response (AID 743045). The class given is functional.
Test [7] is described as follows: PAX8-dependent cell viability loss – plate reader, dry powder, dose response (AID 743049). Format: functional, cell-based.
The next test has as its target Paired box protein Pax-8 (Homo sapiens, UniProt Q06710). Briefly: PAX8 transcriptional activity inhibition in RMG-I – RMG-I cells, luciferase, cherry-pick, dose response (AID 687027).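 Further: luciferase reporter driven by Pax8 target thyroperoxidase promoter measured by SteadyGlo luminescence.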 The class given is functional, cell-based.
Test [8] in a line: COV434 cell viability loss – plate reader, dry powder, SA7, cytotoxicity control for PAX8 inhibitor project, dose response (AID 743145). Format: functional, cell-based.
The nature of test [9]: OV-90 cell viability loss – plate reader, dry powder, SA8, PAX8 inhibitor project, dose response (AID 743149). Format: functional, cell-based.
Test [10] in a line: IGROV1 cell killing – plate reader, dry powder samples, PAX8 inhibitor project, dose response (AID 743043). Format: functional, cell-based. The conditions noted are these: IGROV-1.
The nature of test [11]: OVCAR-3 cell viability loss – plate reader, dry powder samples, PAX8 inhibitor project, dose response (AID 743044). The class given is functional, cell-based.
Test [12] can be described thus: general cell-killing toxicity readout – plate reader, dry powder samples, cytotoxicity control for PAX8 inhibitor project, dose response (AID 743021). The class given is functional, cell-based.
For test [13], the target named is Endoplasmic reticulum aminopeptidase 1 (Homo sapiens, UniProt Q9NZ08). Briefly: inhibition of human ERAP1 enzyme activity – biochemical, cherry-pick, set 2, plate reader, dose response (AID 743314).
A short description of test [14]: anti-trypanosomal activity in BESM host cells – imaging, CA-I/72 strain, bovine embryo skeletal muscle, dry powder, dose response (AID 651885). The class given is functional, cell-based.
Test [15] in a line: mouse embryonic fibroblast toxicity – cell-based, plate reader, dry powder, set 2, cytotoxicity control, dose response (AID 652280). Format: functional. The conditions noted are these: NIH3T3.
A short description of test [16]: T. cruzi growth inhibition in host cells, dose response, cell-based, plate reader, dry powder, set 2 (AID 652275). The class given is functional.
Test [17] can be described thus: cytotoxicity in MITF-independent A375 cells – cell-based, CellTiter-Glo luminescence, dry powder, set 4, counter-screen for MITF inhibitor project, dose response (AID 624364).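 Further: A375 melanoma cells are MITF independent so this is a counter screen.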 The conditions noted are these: A-375. Format: functional. (In ATP-based viability assays light output follows the ATP content of the culture.)
The nature of test [18]: viability loss in MITF-independent A375 cells – cell-based, CellTiter-Glo luminescence, dry powder, set 2, counter-screen for MITF inhibitor project, dose response (AID 624489).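 Further: actives are compounds lowering A375 viability meaning general cytotoxicity.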 Format: functional. The conditions noted are these: A-375.
Test [19] can be described thus: general mammalian cell viability loss – activator set, cherry-pick, cytotoxicity control for miR-122 modulator project, dose response (AID 720690).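 Further: HEK293T human cells scored for general mammalian cytotoxicity.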 The class given is functional, cell-based.
The nature of test [20]: general mammalian cell viability loss – inhibitor set, cherry-pick, set 2, cytotoxicity control for miR-122 modulator project, dose response (AID 720697). The class given is functional, cell-based.
The nature of test [21]: viability loss in human Jurkat cells – cell-based, luminescence, cytotoxicity control for P. falciparum gametocyte viability project, dose response (AID 1117277).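 Further: potency reflects loss of cellular ATP meaning fewer viable cells.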 The class given is functional.
A short description of test [22]: viability inhibitors of stage V gametocytes – luminescence, dose response (AID 1117278).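 Further: gametocytes exposed to compound for 24 hours.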 The class given is functional, cell-based.
A short description of test [23]: viability loss in LCL cells – cell-based, plate reader, dry powder, set 2, cytotoxicity control, dose response (AID 624367). Format: functional.
The nature of test [24]: Luminescence-based cell-based high throughput dose response assay to identify activators of the DAF-12 from the parasite S. stercoralis (ssDAF-12). Format: functional.
A further test addresses Caspase-6 (Homo sapiens, UniProt P55212). Put plainly: inhibition of CASP6 peptide cleavage – biochemical, VEID-R110 fluorescence, cherry-pick, dose response (AID 720632).
For test [25], the target named is T1, Corticotropin-releasing factor receptor 2/Corticotropin-releasing factor-binding protein (Homo sapiens, UniProt P24387+Q13324).
T1 sequence (Q13324 whole entry): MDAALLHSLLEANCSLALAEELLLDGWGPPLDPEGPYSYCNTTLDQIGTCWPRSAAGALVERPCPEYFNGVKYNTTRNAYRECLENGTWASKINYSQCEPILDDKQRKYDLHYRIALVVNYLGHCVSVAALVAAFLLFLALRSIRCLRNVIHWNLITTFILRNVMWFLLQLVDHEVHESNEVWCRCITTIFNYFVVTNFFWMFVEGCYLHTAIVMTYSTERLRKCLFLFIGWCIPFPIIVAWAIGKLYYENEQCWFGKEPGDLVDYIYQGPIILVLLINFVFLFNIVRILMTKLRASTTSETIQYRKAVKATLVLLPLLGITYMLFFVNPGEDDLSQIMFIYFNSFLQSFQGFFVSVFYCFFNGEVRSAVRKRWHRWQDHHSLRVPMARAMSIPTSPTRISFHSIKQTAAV
T1 sequence (P24387 whole entry): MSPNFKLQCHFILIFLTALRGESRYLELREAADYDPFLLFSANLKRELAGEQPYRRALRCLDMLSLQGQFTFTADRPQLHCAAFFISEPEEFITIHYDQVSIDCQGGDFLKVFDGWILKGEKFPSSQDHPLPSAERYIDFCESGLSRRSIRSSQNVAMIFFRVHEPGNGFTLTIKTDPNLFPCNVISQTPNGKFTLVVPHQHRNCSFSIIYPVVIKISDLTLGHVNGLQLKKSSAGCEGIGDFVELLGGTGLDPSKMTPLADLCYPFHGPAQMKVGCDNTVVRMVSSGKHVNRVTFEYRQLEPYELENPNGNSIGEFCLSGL
Put plainly: Dose Response confirmation of uHTS hits for small molecule antagonists of the CRF-binding protein and CRF-R2 receptor complex. The class given is functional. The conditions noted are these: read-out: IC50_Mean.

The target of test [26] is T1, Corticotropin-releasing factor receptor 2/Corticotropin-releasing factor-binding protein. Put plainly: activators of CRF receptor 2 with binding protein – uHTS hits, confirmation (AID 602473). The conditions noted are these: read-out: EC50_Mean. Format: functional.
For test [27], the target named is Photoreceptor-specific nuclear receptor (Homo sapiens, UniProt Q9Y5X4). Format: functional, cell-based.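 Further: CHO-S cells with Gal4-NCOR and VP16-NR2E3 two-hybrid luciferase reporter.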
Test [28] can be described thus: blockers of CRF-binding protein–CRF-R2 complex – cell-based, uHTS hits, 384-well, dose response (AID 651639). The class given is functional, Homo sapiens. The conditions noted are these: read-out: IC50_Mean.
Test [29] deals with Potassium channel subfamily K member 3 (Homo sapiens, UniProt O14649). Put plainly: inhibition of human KCNK3 channel flux – CHO cells, FluxOR thallium flux, SAR follow-up (AID 652212). The class given is functional.
The target in test [30] is Potassium channel subfamily K member 9 (Homo sapiens, UniProt Q9NPC2). Briefly: KCNK9 flux blockade, concentration-response – cell-based, FluxOR thallium flux, selectivity assay for TASK1 inhibitor project, SAR follow-up (AID 652211).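 Further: potency is for inhibitors of the channel.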 Format: functional.
Potassium channel subfamily K member 9, sequence (Q9NPC2 whole entry): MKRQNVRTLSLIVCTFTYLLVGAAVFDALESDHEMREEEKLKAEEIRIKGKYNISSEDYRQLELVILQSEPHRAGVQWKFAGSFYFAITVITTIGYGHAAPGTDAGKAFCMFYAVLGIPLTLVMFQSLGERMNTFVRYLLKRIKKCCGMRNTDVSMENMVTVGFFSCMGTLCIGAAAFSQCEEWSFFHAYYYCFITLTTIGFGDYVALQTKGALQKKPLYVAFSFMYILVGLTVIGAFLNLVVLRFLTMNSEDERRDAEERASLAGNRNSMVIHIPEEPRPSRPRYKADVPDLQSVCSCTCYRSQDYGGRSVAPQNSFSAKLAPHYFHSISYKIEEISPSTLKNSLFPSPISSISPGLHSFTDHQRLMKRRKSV

Paired box protein Pax-8, sequence (Q06710 whole entry): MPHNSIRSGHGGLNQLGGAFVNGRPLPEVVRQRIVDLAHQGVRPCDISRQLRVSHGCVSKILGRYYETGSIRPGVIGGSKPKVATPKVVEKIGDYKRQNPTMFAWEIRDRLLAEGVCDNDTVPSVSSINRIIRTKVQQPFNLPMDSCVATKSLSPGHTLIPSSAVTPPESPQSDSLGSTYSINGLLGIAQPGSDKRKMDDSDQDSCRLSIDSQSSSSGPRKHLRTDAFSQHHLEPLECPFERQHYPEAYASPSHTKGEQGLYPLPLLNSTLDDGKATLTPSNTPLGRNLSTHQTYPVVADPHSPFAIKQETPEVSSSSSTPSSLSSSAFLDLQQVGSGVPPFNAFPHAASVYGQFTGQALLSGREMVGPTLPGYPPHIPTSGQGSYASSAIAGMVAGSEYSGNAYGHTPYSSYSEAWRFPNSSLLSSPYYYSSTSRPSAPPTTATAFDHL
Photoreceptor-specific nuclear receptor, sequence (Q9Y5X4 whole entry, the tested form may be a part): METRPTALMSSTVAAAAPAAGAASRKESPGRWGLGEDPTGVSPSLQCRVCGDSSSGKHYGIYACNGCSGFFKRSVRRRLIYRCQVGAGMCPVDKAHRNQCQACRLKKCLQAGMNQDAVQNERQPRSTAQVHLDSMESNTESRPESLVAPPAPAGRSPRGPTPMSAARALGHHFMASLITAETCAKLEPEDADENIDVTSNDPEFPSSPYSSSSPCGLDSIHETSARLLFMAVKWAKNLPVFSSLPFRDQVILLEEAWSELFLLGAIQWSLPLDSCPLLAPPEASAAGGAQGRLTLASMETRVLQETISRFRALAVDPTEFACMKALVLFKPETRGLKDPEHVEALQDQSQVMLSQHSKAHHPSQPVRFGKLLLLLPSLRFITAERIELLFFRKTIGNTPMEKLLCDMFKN
Potassium channel subfamily K member 3, sequence (O14649 whole entry): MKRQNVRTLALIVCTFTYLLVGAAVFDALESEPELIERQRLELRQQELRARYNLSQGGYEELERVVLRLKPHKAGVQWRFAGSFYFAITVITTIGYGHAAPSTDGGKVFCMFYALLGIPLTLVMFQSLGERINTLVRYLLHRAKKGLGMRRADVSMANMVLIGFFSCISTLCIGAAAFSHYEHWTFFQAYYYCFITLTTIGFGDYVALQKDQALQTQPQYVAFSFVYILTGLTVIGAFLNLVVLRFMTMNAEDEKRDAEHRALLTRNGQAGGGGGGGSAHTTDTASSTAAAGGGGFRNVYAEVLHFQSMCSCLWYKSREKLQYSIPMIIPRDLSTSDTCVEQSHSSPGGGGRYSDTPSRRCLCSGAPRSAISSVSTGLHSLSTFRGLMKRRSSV
Endoplasmic reticulum aminopeptidase 1, sequence (Q9NZ08 whole entry): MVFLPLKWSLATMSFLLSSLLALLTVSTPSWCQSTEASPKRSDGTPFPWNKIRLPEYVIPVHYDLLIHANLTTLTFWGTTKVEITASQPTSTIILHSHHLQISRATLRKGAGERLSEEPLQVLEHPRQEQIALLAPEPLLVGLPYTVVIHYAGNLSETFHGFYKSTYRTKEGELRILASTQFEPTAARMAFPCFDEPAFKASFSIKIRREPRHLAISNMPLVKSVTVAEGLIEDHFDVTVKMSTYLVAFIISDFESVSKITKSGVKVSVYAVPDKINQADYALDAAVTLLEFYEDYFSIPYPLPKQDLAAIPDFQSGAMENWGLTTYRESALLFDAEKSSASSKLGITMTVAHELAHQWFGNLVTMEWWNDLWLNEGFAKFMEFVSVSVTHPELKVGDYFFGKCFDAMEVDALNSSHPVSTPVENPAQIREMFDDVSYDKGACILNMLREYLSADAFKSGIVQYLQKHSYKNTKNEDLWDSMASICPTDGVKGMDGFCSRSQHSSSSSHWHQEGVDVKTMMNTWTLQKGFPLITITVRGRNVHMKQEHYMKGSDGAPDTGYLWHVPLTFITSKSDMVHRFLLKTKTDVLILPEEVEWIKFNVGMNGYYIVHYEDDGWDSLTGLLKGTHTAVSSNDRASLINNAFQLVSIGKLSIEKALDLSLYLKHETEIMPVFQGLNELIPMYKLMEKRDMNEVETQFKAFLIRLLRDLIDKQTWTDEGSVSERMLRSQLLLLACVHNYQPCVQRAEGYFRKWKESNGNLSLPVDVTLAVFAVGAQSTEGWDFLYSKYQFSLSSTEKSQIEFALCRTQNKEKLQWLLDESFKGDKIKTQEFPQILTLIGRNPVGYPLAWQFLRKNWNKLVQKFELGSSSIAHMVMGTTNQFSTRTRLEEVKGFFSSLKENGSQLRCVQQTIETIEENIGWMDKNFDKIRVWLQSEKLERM
Caspase-6, sequence (P55212 24-179 limits assumed): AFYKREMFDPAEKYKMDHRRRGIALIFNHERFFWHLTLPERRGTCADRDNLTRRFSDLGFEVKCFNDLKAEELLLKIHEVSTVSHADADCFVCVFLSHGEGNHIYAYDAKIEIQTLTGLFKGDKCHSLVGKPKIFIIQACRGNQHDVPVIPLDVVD
Caspase-6, sequence (P55212 194-293 limits assumed): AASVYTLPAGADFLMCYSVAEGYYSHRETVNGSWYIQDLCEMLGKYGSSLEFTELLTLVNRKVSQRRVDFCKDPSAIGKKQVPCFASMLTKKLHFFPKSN

By AC50 is commonly meant the concentration giving half of the maximal activity seen. As to `CN(C[C@H]1N[C@@H](CO)[C@@H]1c1ccc(C2=CCCC2)cc1)C(=O)c1cccc(F)c1`, the concentration at half-maximal activity (AC50) in test [1] was 1.37 µM (active); in test [2] it was 3.4 µM (active); in test [3], 11.3 µM (active); in test [4], 0.298 µM (active); in [5], 3.98 µM (active); in test [6], 3.44 µM (active). In addition, the half-maximal activity concentration (AC50) is 3.86 µM (active) in [7]; 2.47 µM (active) on Paired box protein Pax-8; 6.6 µM (active) in test [8]; 7.38 µM (active) in test [9]; 6.12 µM (active) in [10]; 4.55 µM (active) in test [11]. Further, the concentration at half-maximal activity (AC50) in test [12] was 26 µM (active).
Consider `CCNC(=O)[C@H]1[C@H](CO)[C@H]2Cn3c(ccc(/C=C/c4ccccc4)c3=O)[C@@H]1N2`, for which the AC50 in [13] is 11.3 µM (active).
Consider `C[C@@H]1CN([C@@H](C)CO)C(=O)c2cc(-c3cccnc3)cnc2O[C@H]1CN(C)Cc1ccc(Oc2ccccc2)cc1`, for which the IC50 in [14] is > 20 µM (inactive). Further, the values for the AC50 in test [15] and in test [16] were 11.9 µM (active) and 1.95 µM (active), respectively.
On to `O=C(NC1=C(c2ccc(OC(F)(F)F)cc2)C(=O)c2ccccc2C1=O)c1ccccc1F`, for which the results for the half-maximal activity concentration (AC50) in test [17] and in [18] were 34.4 µM (active) and 30.5 µM (active), respectively.
For the molecule `CN1C(=O)c2cc(NS(=O)(=O)c3cccc(F)c3)ccc2OC[C@@H]2O[C@@H](CC(=O)NCCN3CCCCC3)CC[C@H]21`, the AC50 was 26.1 µM (active) in [19] and 0.254 µM (active) in test [20].
Take `Cc1nccc(O)c1OCc1ccc(Cl)cc1`: the results for the IC50 in test [21] and in test [22] were > 83.3 µM (inactive) and > 109 µM (inactive), respectively.
Regarding `O=C(C[C@@H]1C[C@H]2c3cc(NS(=O)(=O)c4ccc(F)cc4)ccc3O[C@H]2[C@@H](CO)O1)NCc1ccc(Oc2ccccc2)cc1`, the AC50 in test [2] was 43.5 µM (active); in test [3], 45.6 µM (active); in test [6], 26.7 µM (active); on Paired box protein Pax-8, 7.32 µM (active); in [10], 44.3 µM (active); in test [11], 21.5 µM (active). In test [23], this molecule registered an AbsAC35 of 42.5 µM.
On to `CC1=CC(c2ccccc2)=Nc2ccc(C)cc2N1`, for which the IC50 in test [24] was > 67.5 µM (inactive).
With `CC(C)c1ccc(C(c2c(O)oc3ccccc3c2=O)c2c(O)oc3ccccc3c2=O)cc1`, the AC50 at Caspase-6 was 6.05 µM (active). The IC50 was 3.45 µM (active) in test [25], 0.975 µM (active) in test [27] and 5.18 µM (active) in test [28]. Further, the EC50 in test [26] was > 53 µM (inactive).
Regarding `CCOc1ccccc1NC(=O)c1cccc(NC(=O)c2cccc(OC)c2)c1`, the IC50 is 0.005 µM (active) in [29] and 2.33 µM (active) in [30].
